In publication PMC10052868 (European journal of medicinal chemistry, 2022):
“Also recorded” adds a separate entry of the source. Counter-ions that a name gives are not always drawn.

target: PfPK6 (Plasmodium falciparum, UniProt Q8IDW1); test: KinaseSeeker split-luciferase assay on PfPK6; format: binding, P. falciparum; conditions: not given

Row | SMILES | IC50
1 | COc1cc2nccc(Oc3ccc(NC(=O)Nc4cccc(C(F)(F)F)c4)c(F)c3)c2cc1OC [Compound 39, 1-(4-((6,7-dimethoxyquinolin-4-yl)oxy)-2-fluorophenyl)-3-(3-(trifluoromethyl)phenyl)urea] | < 5 nM

same assay, conditions: KinaseSeeker, 1 μM

Row | SMILES | activity against PfPK6 in words
2 | O=C(Nc1ccc(O)cc1F)Nc1ccc(F)cc1F [Compound 5, 1-(2,4-difluorophenyl)-3-(2-fluoro-4-hydroxyphenyl)urea] | completely inactive
3 | COc1ccc(NC(=O)Nc2ccc(F)cc2F)c(F)c1 [Compound 6, 1-(2,4-difluorophenyl)-3-(2-fluoro-4-methoxyphenyl)urea] | completely inactive
4 | COc1cc2nccc(Oc3ccc(N)c(F)c3)c2cc1OC [Compound 14, 4-((6,7-dimethoxyquinolin-4-yl)oxy)-2-fluoroaniline] | complete loss of activity
5 | COc1cc2nccc(Oc3ccc(N)cc3)c2cc1OC [Compound 15, 4-((6,7-dimethoxyquinolin-4-yl)oxy)aniline] | complete loss of activity
6 | O=C(Nc1ccc(F)cc1F)Nc1ccc(Oc2cnnc3ccccc23)cc1F [Compound 24, 1-(4-(cinnolin-4-yloxy)-2-fluorophenyl)-3-(2,4-difluorophenyl)urea] | complete loss of potency

same assay, conditions: compared to 41

Row | SMILES | fold drop in activity against PfPK6 compared to 41
7 | COc1cc2nccc(Oc3ccc(NC(=O)Nc4ccc(N5CCN(C)CC5)cc4)c(F)c3)c2cc1OC [Compound 59, 1-(4-((6,7-dimethoxyquinolin-4-yl)oxy)-2-fluorophenyl)-3-(4-(4-methylpiperazin-1-yl)phenyl)urea] | 30 fold
8 | COc1cc2nccc(Oc3ccc(NC(=O)Nc4ccc(NC5CCN(C)CC5)cc4)c(F)c3)c2cc1OC [Compound 65, 1-(4-((6,7-dimethoxyquinolin-4-yl)oxy)-2-fluorophenyl)-3-(4-((1-methylpiperidin-4-yl)amino)phenyl)urea] | 12 fold

same assay, conditions: compared to Ki8751

Row | SMILES | fold drop in potency against PfPK6 relative to Ki8751 | fold increase in potency against PfPK6 compared to Ki8751
9 | COc1ccc2c(Oc3ccc(NC(=O)Nc4ccc(F)cc4F)c(F)c3)ccnc2c1 [Compound 1, 1-(2,4-difluorophenyl)-3-(2-fluoro-4-((7-methoxyquinolin-4-yl)oxy)phenyl)urea] | 3 fold | –
10 | COc1ccc2nccc(Oc3ccc(NC(=O)Nc4ccc(F)cc4F)c(F)c3)c2c1 [Compound 2, 1-(2,4-difluorophenyl)-3-(2-fluoro-4-((6-methoxyquinolin-4-yl)oxy)phenyl)urea] | 15 fold | –
11 | O=C(Nc1ccc(F)cc1F)Nc1ccc(Oc2ccnc3ccccc23)cc1F [Compound 3, 1-(2,4-difluorophenyl)-3-(2-fluoro-4-(quinolin-4-yloxy)phenyl)urea] | 34 fold | –
12 | COc1cc2nccc(Oc3ccc(NC(=O)Nc4ccccc4F)c(F)c3)c2cc1OC [Compound 7, 1-(4-((6,7-dimethoxyquinolin-4-yl)oxy)-2-fluorophenyl)-3-(2-fluorophenyl)urea] | – | ≥ 3 fold
13 | COc1cc2nccc(Oc3ccc(NC(=O)Nc4ccc(F)cc4)c(F)c3)c2cc1OC [Compound 8, 1-(4-((6,7-dimethoxyquinolin-4-yl)oxy)-2-fluorophenyl)-3-(4-fluorophenyl)urea] | – | ≥ 3 fold
14 | COc1cc2nccc(Oc3ccc(NC(=O)Nc4ccccc4)c(F)c3)c2cc1OC [Compound 9, 1-(4-((6,7-dimethoxyquinolin-4-yl)oxy)-2-fluorophenyl)-3-phenylurea] | – | ≥ 3 fold

same assay, conditions: compared to quinoline 3

Row | SMILES | fold improvement in PfPK6 potency on replacing the quinoline
15 | O=C(Nc1ccc(F)cc1F)Nc1ccc(Oc2ccnc3[nH]ccc23)cc1F [Compound 29, 1-(4-((1H-pyrrolo[2,3-b]pyridin-4-yl)oxy)-2-fluorophenyl)-3-(2,4-difluorophenyl)urea] | 4 fold

same assay, conditions: read-out: PfPK6 activity remaining at 1 μM (%)

Row | SMILES | remaining activity at 1 µM
16 | O=C(Nc1ccc(O)cc1F)Nc1ccc(F)cc1F [Compound 5, 1-(2,4-difluorophenyl)-3-(2-fluoro-4-hydroxyphenyl)urea] | 100%
17 | COc1ccc(NC(=O)Nc2ccc(F)cc2F)c(F)c1 [Compound 6, 1-(2,4-difluorophenyl)-3-(2-fluoro-4-methoxyphenyl)urea] | 100%
18 | COc1cc2nccc(Oc3ccc(N)c(F)c3)c2cc1OC [Compound 14, 4-((6,7-dimethoxyquinolin-4-yl)oxy)-2-fluoroaniline] | 100%
19 | O=C(Nc1ccc(F)cc1F)Nc1ccc(Oc2cnnc3ccccc23)cc1F [Compound 24, 1-(4-(cinnolin-4-yloxy)-2-fluorophenyl)-3-(2,4-difluorophenyl)urea] | 100%

system: P. falciparum 3D7; test: P. falciparum asexual blood stage viability assay; format: cell-based; conditions: Inactive = no inhibition when tested in triplicate at a single concentration of 1 μM

Row | SMILES | Pf3D7 blood stage activity at single concentration
20 | COc1cc2nccc(Oc3ccc(NC(=O)Nc4cccc(CN5CCN(C)CC5)c4)c(F)c3)c2cc1OC [Compound 42, 1-(4-((6,7-dimethoxyquinolin-4-yl)oxy)-2-fluorophenyl)-3-(3-((4-methylpiperazin-1-yl)methyl)phenyl)urea diformate] | loss of P. falciparum blood stage activity; also recorded: Inactive^e
21 | COc1cc2nccc(Oc3ccc(NC(=O)Nc4ccc(C(=O)N5CCN(C)CC5)cc4)c(F)c3)c2cc1OC [Compound 43, 1-(4-((6,7-dimethoxyquinolin-4-yl)oxy)-2-fluorophenyl)-3-(4-(4-methylpiperazine-1-carbonyl)phenyl)urea] | did not observe antiplasmodial activity; also recorded: Inactive^e
22 | COc1cc2nccc(Oc3ccc(NC(=O)Nc4cccc(C(=O)N5CCN(C)CC5)c4)c(F)c3)c2cc1OC [Compound 44, 1-(4-((6,7-dimethoxyquinolin-4-yl)oxy)-2-fluorophenyl)-3-(3-(4-methylpiperazine-1-carbonyl)phenyl)urea] | did not observe antiplasmodial activity; also recorded: Inactive^e
23 | COc1cc2nccc(Oc3ccc(NC(=O)Nc4ccc(C(=O)N5CCN(C)CC5)c(C(F)(F)F)c4)c(F)c3)c2cc1OC [Compound 47, 1-(4-((6,7-dimethoxyquinolin-4-yl)oxy)-2-fluorophenyl)-3-(4-(4-methylpiperazine-1-carbonyl)-3-(trifluoromethyl)phenyl)urea] | Inactive^e
24 | COc1cc2nccc(Oc3ccc(NC(=O)Nc4cc(C(=O)N5CCN(C)CC5)cc(C(F)(F)F)c4)c(F)c3)c2cc1OC [Compound 48, 1-(4-((6,7-dimethoxyquinolin-4-yl)oxy)-2-fluorophenyl)-3-(3-(4-methylpiperazine-1-carbonyl)-5-(trifluoromethyl)phenyl)urea formate] | Inactive^e
25 | COc1cc2nccc(Oc3ccc(NC(=O)Nc4cccc(Br)c4)c(F)c3)c2cc1OC [Compound 50, 1-(3-bromophenyl)-3-(4-((6,7-dimethoxyquinolin-4-yl)oxy)-2-fluorophenyl)urea] | Inactive^d
26 | COc1cc2nccc(Oc3ccc(NC(=O)Nc4cccc(C(C)C)c4)c(F)c3)c2cc1OC [Compound 52, 1-(4-((6,7-dimethoxyquinolin-4-yl)oxy)-2-fluorophenyl)-3-(3-isopropylphenyl)urea] | Inactive^d
27 | COc1cccc(NC(=O)Nc2ccc(Oc3ccnc4cc(OC)c(OC)cc34)cc2F)c1 [Compound 54, 1-(4-((6,7-dimethoxyquinolin-4-yl)oxy)-2-fluorophenyl)-3-(3-methoxyphenyl)urea] | Inactive^d
28 | COc1cc2nccc(Oc3ccc(NC(=O)Nc4cccc(OC(C)C)c4)c(F)c3)c2cc1OC [Compound 55, 1-(4-((6,7-dimethoxyquinolin-4-yl)oxy)-2-fluorophenyl)-3-(3-isopropoxyphenyl)urea] | Inactive^d
29 | COc1cc2nccc(Oc3ccc(NC(=O)Nc4cccc(OC(F)F)c4)c(F)c3)c2cc1OC [Compound 56, 1-(3-(difluoromethoxy)phenyl)-3-(4-((6,7-dimethoxyquinolin-4-yl)oxy)-2-fluorophenyl)urea] | Inactive^d
30 | COc1cc2nccc(Oc3ccc(NC(=O)Nc4cccc(C#N)c4)c(F)c3)c2cc1OC [Compound 58, 1-(3-cyanophenyl)-3-(4-((6,7-dimethoxyquinolin-4-yl)oxy)-2-fluorophenyl)urea] | Inactive^d
31 | COc1cc2nccc(Oc3ccc(NC(=O)Nc4ccc(CN5CCOCC5)cc4)c(F)c3)c2cc1OC [Compound 60, 1-(4-((6,7-dimethoxyquinolin-4-yl)oxy)-2-fluorophenyl)-3-(4-(morpholinomethyl)phenyl)urea] | Inactive^c

same assay, conditions: compared to parent compound without meta group (64, 66, 67 or 68)

Row | SMILES | fold improvement in P. falciparum blood stage potency on adding CF3 or OCF3
32 | COc1cc2nccc(Oc3ccc(NC(=O)Nc4ccc(OC5CCN(C)CC5)c(OC(F)(F)F)c4)c(F)c3)c2cc1OC [Compound 76, 1-(4-((6,7-dimethoxyquinolin-4-yl)oxy)-2-fluorophenyl)-3-(4-((1-methylpiperidin-4-yl)oxy)-3-(trifluoromethoxy)phenyl)urea] | 4 fold
33 | COc1cc2nccc(Oc3ccc(NC(=O)Nc4ccc(N(C)C5CCN(C)CC5)c(C(F)(F)F)c4)c(F)c3)c2cc1OC [Compound 77, 1-(4-((6,7-dimethoxyquinolin-4-yl)oxy)-2-fluorophenyl)-3-(4-(methyl(1-methylpiperidin-4-yl)amino)-3-(trifluoromethyl)phenyl)urea] | 2 fold
34 | COc1cc2nccc(Oc3ccc(NC(=O)Nc4ccc(CC5CCNCC5)c(OC(F)(F)F)c4)c(F)c3)c2cc1OC [Compound 80, 1-(4-((6,7-dimethoxyquinolin-4-yl)oxy)-2-fluorophenyl)-3-(4-(piperidin-4-ylmethyl)-3-(trifluoromethoxy)phenyl)urea] | 2 fold
35 | COc1cc2nccc(Oc3ccc(NC(=O)Nc4ccc(C=C5CCNCC5)c(C(F)(F)F)c4)c(F)c3)c2cc1OC [Compound 81, 1-(4-((6,7-dimethoxyquinolin-4-yl)oxy)-2-fluorophenyl)-3-(4-(piperidin-4-ylidenemethyl)-3-(trifluoromethyl)phenyl)urea] | 2 fold
